Patent US12178801B1, “Stable psilocin salts, esters and conjugates and uses thereof” (LOBE SCIENCES LTD., priority 2022, dated 2024)
“And” between values parts separate entries of the source, which are not always exact repeats. Equal entries are not always repeated. “Also recorded” adds a separate entry of the source.

Tests used:
[1] = Stability studies on psilocin mucate capsule (appearance, HPLC assay and impurities, TM-022-0392); assay type: physicochemical; conditions: for Assay TM-22-0392 (% Label Claim): specification 90.0-110.0%
Experimental: Additional stability studies were performed on psilocin mucate (also known as psilocin mucic acid salt or conjugate or psilocin galactaric acid salt or conjugate) capsule.
Appearance was evaluated by viewing of the sample on a watchglass over a black and white background.
Assay conditions for Test/Method TM-022-0392 assessing stability and impurities were as follows: • Mobile phase: MPA: 945 mL water, 5 mL H3PO4 pH to 5.7 with NaOH; MPB: Acetonitrile • Diluent: 80:20 Water:MeOH • Standard: 0.4 mg/mL Psilocin Mucic RS in Diluent • Sample:0.4 mg/mL Psilocin Mucic AP in Diluent • HPLC Conditions are depicted in Table 3.
*Additional equilibration may be required System suit: RSD NMT 2.0% (5 injections), Tailing NMT 2.0, Plate count NLT 10000
Calculations were against a bracketing external standard.
Identity of psilocin mucate was verified by ultraviolet (UV) assessment, wherein the UV spectrum of the main peak in the standard matched the UV spectrum of the main peak in the sample and by retention time wherein the retention time ratio was 0.98-1.02.

healthy subjects = assay: Phase one single-dose study of psilocin mucic acid conjugate capsules: MMSE and mood assessment by psychiatrist; conditions: single oral capsule 4.05 mg, equivalent to 2 mg psilocin
[2] = psilocin from psilocybin administration; cited from earlier work
[3] = psilocybin dose, equivalent to about 2 mg psilocin; cited from earlier work

## CN(C)CCc1c[nH]c2cccc(O)c12.O=C(O)[C@@H](O)[C@H](O)[C@H](O)[C@@H](O)C(=O)O [psilocin mucate]
[1]
  Time for which demonstrated to be stable: at least 7 months
[1]; capsule, 7 Months
  Appearance, Packaging: Labeled, amber glass bottle with white closure containing 15 partially filled white opaque capsules: Conforms
  Appearance, Product: White to light brown powder partially filling white opaque capsules: Conforms
  Total Impurities TM-22-0392: <0.05%
  Assay TM-22-0392 (% Label Claim): 101.7%
[1]; capsule, 7 Months, all impurities
  Impurities TM-22-0392, individual impurities: All <0.05%
[1]; capsule, Initial
  Appearance, Packaging: Labeled, amber glass bottle with white closure containing 15 partially filled white opaque capsules: Conforms
  Appearance, Product: White to light brown powder partially filling white opaque capsules: Conforms
  Total Impurities TM-22-0392: 0.08%
  Assay TM-22-0392 (% Label Claim): 100.8%
Healthy subjects; one statement per subject (01-10)
  FEELING STATUS: Less anxious, better mood, increase their appetite; also recorded: Feel little beet happier, better energy; also recorded: Feel calm, less thoughts, happier mood; also recorded: Euphoric, better mood, it helps with life stress; also recorded: Euphories, better mood, sleepy, feel time is slower; also recorded: Sleepy, better thoughts, less worried in general; also recorded: Did not feel change in mood but feeling cold; also recorded: More relaxed, want to drink sweet tea, better; also recorded: Better mood, feels hyper sexual; also recorded: Felt high mood, now they feel in good way, ,
Healthy subjects; one value per subject (01-10), scores expected below 25 with a hallucinogenic substance
  MMSE: 29 (2×) and 30 (3×) and 28 (3×) and 27 (2×)

## CN(C)CCc1c[nH]c2cccc(O)c12 [psilocin]
[2]
  Estimated dose-normalized bioavailability: 52.7%

## CN(C)CCc1c[nH]c2cccc(OP(=O)(O)O)c12 [psilocybin, Psilocybin]
[3]
  Lowest dose with reported hallucinogenic effects coupled with increased anxiety: 5 mg
